Results as given in patent US20120070451A1, “METHODS AND COMPOSITIONS FOR MODULATING CARDIAC CONTRACTILITY” (Consiglio Nazionale Delle Ricerche, priority 2009, published 2012).

Columns and labels:
Cavα1 currents = assay: Whole-cell patch clamp Ca2+ current (ICa,L) in cotransfected tsA-201 cells with or without serum; type: cell-based; conditions: cotransfection with Cavα1; 36 h
Method: FIG. 6. Akt phosphorylation of Cavβ2 preserves Cavα1 currents. Ca^2+ currents recorded in cotransfected tsA-201 cells with YFP-Cavα1 and either Cavβ2-WT, Cavβ2-SE, or Cavβ2-SA mutant, cultivated for 36 h in the presence or absence of fetal bovine serum (10%). Currents were recorded 1-2 minutes after the whole-cell configuration was achieved (i.e. after stabilization of the current) and were elicited by a 0 mV depolarization of 200 ms duration applied from a holding potential of −80 mV. Currents are normalized to cell capacitance (Current density, pA/pF). Representative current traces are shown. n>35 at each condition, (*P<0.05 compared to YFP-Cavα1, ANOVA).
FIG. 7. […] (C) Wild-type Cavα1 subunit (alone or cotransfected with Cavβ2SE) and its in-frame ΔPEST mutants (Cavα1-ΔP and Cavα1-ΔH) half-lives were determined in COST cells. After overnight starvation, transfected cells were pulse-chased and analyzed along a time course (*P<0.001 compared to Cavα1, ANOVA; n=3). […] (F) Ca^2+ currents recorded in tsA-201 cells cotransfected with Cavβ2-WT and either Cavα1-WT or Cavα1-ΔH and cultivated for 36 h in the presence or absence of fetal bovine serum (10%). […]
Macroscopic Ice, was recorded at room temperature (˜22° C.) using the whole-cell patch clamp technique in native cells as previously described (Aimond et al., 2005; Maier et al., 2003). […]

Cavα1 = assay: Western blot of Cavα1 protein level in 293T cells co-transfected with Cavα1 and Cavβ2 variants; type: cell-based
Method: FIG. 5. Akt phosphorylation of Cavβ2 protects Cavα1 from protein degradation. (A-C) YFP-Cavα1 co-transfected 293T cells with the indicated mutant variant of Cavβ2. Cells were serum-starved overnight and treated with (A) […] or (B-C) 5 μM Akt inhibitor as indicated. The expression of YFP-Cavα1 in lysates was monitored by Western blot analysis with anti-YFP antibody, and normalized based on transfection efficiency (Cav(32) and protein amount (Tubulin) (n=3). (D) Cavα1 and Cavβ2 co-transfected 293T cells were treated with siAkt expressing vector as indicated. 3 days post transfection, cell lysate was tested by Western blot analysis. Protein loading was normalized to GAPDH levels. Representative experiments are shown (n=3).
FIG. 12. Cavβ2 interacts with Akt isoforms and Akt affects Cavα1 protein stability. (A) Immunoprecipitated Akt isoforms from WT cardiac extracts from mice treated or not with insulin (1 mU/g) assayed for Cavβ2. Input protein in each co-immunoprecipitation is shown. (B) Cavα1, Cavα1-ΔP, or Cavα1-ΔH co-transfected 293T cells with either Cavβ2 or Cavβ2-SE were infected with indicated active (AdAkt) or dominant negative (AdAktDN) Akt expressing adenoviral vectors. Cells were serum-starved overnight as indicated. The expression of Cavα1 and phosphorylation of GSK in lysates was monitored by Western blot analysis. (C) Cavα1, Cavα1-ΔP, or Cavα1 co-transfected 293T cells with either Cavβ2 or Cavβ2-SE were treated with siAkt expressing vector as indicated. 3 days post transfection, cells were lysated for protein extraction. Protein loading was normalized to GAPDH levels. Representative experiments are shown (n=3).
To directly assess whether Akt phosphorylation of Cavβ2 protects Cavα1 from protein degradation, we constructed a mutant of Cavβ2 in which the Serine 625, contained in the putative Akt—consensus site (R—X—X—R—S/T), was replaced by Glutamate (Cavβ2-SE) to mimic phosphorylation. […]
Proteins expression was evaluated in total lysates or cell fractions by Western blot analysis according to standard procedures. […]

Cavβ2 = Cavβ2 phosphorylation in hearts of insulin-treated mice (PAS antibody); type: in vivo, mouse; conditions: 1 mU/g insulin, 20 min post treatment
Method: FIG. 4. Akt interacts with and phosphorylates Cavβ2. (A) Coimmunoprecipitation assay of Akt and Cavβ2. Ventricular homogenates from WT and HA-E40K-Akt transgenic mice (Tg Akt) immunoprecipitated with antibodies against HA and immunoblotted for Cavβ2 as well as HA as a control. (B) Examination of Cavβ2 phosphorylation by Akt. In vitro kinase assays were performed with immunoprecipitated Cavβ2 incubated with recombinant active Akt and ^32P labeled ATP (left) or immunoprecipitated Cavβ2 from WT and KO cardiac extracts from mice treated or not with insulin (1 mU/g) using PAS (Phospho-Akt Substrate) antibody (right). (C) Back-phosphorylation assay of Cavβ2 from WT and KO hearts. Immunoprecipitated Cavβ2 from solubilized membranes was in vitro back-phosphorylated using recombinant active Akt and [γ^32]ATP. Precipitate amounts were assayed for ^32PCavβ2 and total Cavβ2. Representative experiments are shown (n=4).
To determine whether Cavβ2 can be phosphorylated by Akt, Cavβ2-immunoprecipitates from cardiac homogenates were incubated with recombinant active Akt and [γ-^32]ATP. A band corresponding to phosphorylated Cavβ2 was detected only in the presence of the kinase (FIG. 4B, left panel). To determine whether the Cavβ2 subunit was phosphorylated by Akt in vivo, we treated overnight-starved mice with 1 mU/g insulin to induce activation of Akt (Bayascas et al., 2008). […]

Substance | ICa,L in serum-free medium compared to serum-containing medium (Cavα1 currents) | Cavα1 protein level under Akt inhibitor (Cavα1; 5 μM Akt inhibitor) | Cavα1 protein levels compared to cotransfection with Cavβ2-WT (Cavα1; 293T cells cotransfected with Cavα1) | Phosphorylation of Cavβ2 in heart (Cavβ2) | Cavα1 expression on insulin treatment (Cavα1; Cavβ2-WT cotransfected cells)
Cavβ2-SE: mutant of Cavβ2 in which Serine 625 in the Akt consensus site was replaced by Glutamate to mimic phosphorylation | completely counteracted this reduction | counteracted the downregulation of Cavα1 | increased | – | –
insulin [reference compound] | – | – | – | insulin-stimulated phosphorylation of Cavβ2 in WT but not in KO hearts | increased
